The results in this text go back to US20060116392A1, “Methods for treating anxiety disorders and related article of manufacture” (priority 2004, published 2006).

Structures are written as SMILES.

The test system of test [1] is morphine CPP. The test can be described thus: Induction of morphine conditioned place preference (CPP); inhibitor given after conditioning. In kind it is in vivo, Long Evans rats. The settings on record: for CPP score (time spent in drug associated-chamber), mean±SEM: single s.c. dose at end of four-day conditioning, anisomycin and cycloheximide groups combined; for effect on morphine CPP: single s.c. dose at the end of four-day conditioning, tested at 24 hours. The protocol:
. CPP was tested after 24 hours. To determine whether the effect was stable, the animals were retested 1 week later.
(§1) Because both anisomycin and cycloheximide produced a similar effect, the CPP score of the two groups were combined. […] Further experimentation was needed to determine whether a more extended inhibition of protein synthesis was able to persistently block CPP. Groups of rats were treated as above but received two injections of cycloheximide, one immediately after the last conditioning session and the second 5 hours later. In parallel, the rates of protein synthesis inhibition, over time, following a single or double injection were established. […] With a double injection, 5 hours apart, the rate of protein synthesis inhibition at 6 hours was maintained at 71%. The results after two injections were similar to those after a single injection; in fact, the CPP of rats that received two injection of cycloheximide was inhibited at 24 hours, but recovered a week later (data not shown).
Experimentation was needed to test the possibility that blocking protein synthesis after each daily conditioning produced a stable loss of CPP. Groups of rats received an injection of either cycloheximide or vehicle every day at the end of each conditioning trial and were then tested 24 hours, 1 week and 4 weeks later. […] This inhibition persisted at 1 week (254.8±32.8 sec and 429.4±33.1 sec, respectively, p<0.01) and 4 weeks (243.3±21.8 sec and 416.8±31.4 sec, respectively, p<0.01) post-conditioning (FIG. 1B).
(§2) Adult Long Evans rats (200-250 grams) were used for all the experiments. On day 1, the rats received a single pre-exposure test in a box composed of two distinct compartments (Pre-conditioning). The time spent in each chamber over 10 minutes was recorded (unconditioned preference) and then the animals were returned to their homecages. Animals showing a strong unconditioned preference (>540 s) were discarded. On the subsequent 4 days, place preference conditioning was conducted using an unbiased procedure. In each experimental group, the animals received a subcutaneous injection of either morphine (10 mg/kg) or saline (vehicle solution). Half of both groups were confined for 30 minutes in the spontaneously preferred compartment and the other half in the non-preferred compartment. Testing consisted of allowing the animals free access to both chambers for 10 minutes and recording the amount of time that the animals spend in the conditioned chamber (CPP score). All protocols complied with the N.I.H. Guide for the Care and Use of Laboratory Animals and were approved by the Mount Sinai School of Medicine Animal care Committees.
(§3) Anisomycin and Cycloheximide were injected s.c. at 210 mg/Kg (Milekic and Alberini, 2002) and 2.8 mg/Kg (Squire et al., 1980), respectively. Anisomycin was dissolved as previously described (Milekic and Alberini, 2002). Cycloheximide was dissolved in DMSO and finally diluted in 1% DMSO/saline. Vehicle solutions were prepared accordingly.

Test [2] has as its system morphine CPP. The test can be described thus: Maintenance of morphine CPP after contextual reactivation (Test 1); inhibitor given after recall. In kind it is in vivo, Long Evans rats. The following applies: for CPP score, mean±SEM: injection immediately after Test 1 (1 week after conditioning), Test 2, 24 hours later, cycloheximide and anisomycin scores combined; for change in CPP score: injection immediately after Test 1, re-tested 24 hours later (Test 2). The protocol: The purpose of second set of experiments was to determine whether morphine CPP becomes labile if recalled. Groups of rats were conditioned to morphine for 4 days. […] This test recalled the experience (Test 1), or, in other words, reactivated CPP. Immediately after Test 1, half of the rats received an injection of cycloheximide or anisomycin and half were injected with vehicle. The animals were re-tested 24 hours later (Test 2). […] (Test1-vehicle: 394.4±42.6 sec; Test1-inhibitor: 387.8±25.8 sec; Test2-vehicle 413.3±35.9 sec; Test2-inhibitor 425.9±25.3 sec) (FIG. 2). Because both cycloheximide and anisomycin-treated rats performed similarly, their scores were combined.
as §2, §3

The test system of test [3] is morphine CPP. The test can be described thus: Consolidated morphine CPP after a single reconditioning session; inhibitor given after reconditioning. In kind it is in vivo, Long Evans rats.
Excerpt: However, it is important to consider that during morphine CPP, the drug may serve as an internal reinforcer and the animal experiences a strong reward. It remained unknown whether CPP may become labile if the rewarding state of the drug experience is concomitantly reactivated with the contextual cues (reconditioning). Therefore, it was examined whether a previously formed CPP becomes labile after a reconditioning session. Rats were conditioned to morphine for 4 days and, 1 week later, were exposed to another, single conditioning session. Immediately after this session, half of the animals received an injection of inhibitor (cycloheximide or anisomycin) and the other half of vehicle solution and were then all retested 24 hours and 1 week later.
It was then tested whether blocking protein synthesis after reconditioning for a longer time would result in a stable disruption of CPP. Groups of rats were treated as above but received two injections of cycloheximide, one immediately after reconditioning and the second 5 hours later, a protocol that, as described in the first set of experiments, block 70% of protein synthesis for several hours.
as §2, §3

Test [4] has as its system protein synthesis. The test can be described thus: Inhibition of protein synthesis in brain (L-[35S]methionine incorporation). In kind it is in vivo, rats. The protocol:
as §1
Inhibition of protein synthesis was assessed according to Rosenblum et al. (1993) with modifications. Rats were injected with 125 μCi L-[^35S]methionine (i.p.) and immediately after received an injection of either protein synthesis inhibitors, (cycloheximide or anisomycin) or vehicle solution. The rats were sacrificed one hour after the last inhibitor injection. The brains were homogenized in 5 volumes of cold lysis buffer (1% SDS, 60 mM Tris.Cl pH 7.4, 62.4 mM imidazole, 40 mM DTT, 10% glycerol). The homogenates were boiled for 5 min and centrifuged at 18,000 g for 20 min at room temperature. Equal amount of proteins were precipitated with 20% TCA and the radioactivity was counted. The inhibition of protein synthesis was calculated as: [1−(CPMinhibitor/CPMvehicle)]×100.

In test [5] the test system is morphine CPP. The test can be described thus: Morphine CPP, conditioning context omitted (injections in homecage). In kind it is in vivo, Long Evans rats. The procedure:
(3C) The conditioning context was omitted and rats (n=8) were injected in their home cage with morphine and 30 min later with cycloheximide at the same time point as in (3A) and (3B). CPP was tested 24 hr after injection (post-injection).
(3D) Rats were injected only with cycloheximide (n=9) in the home cage at the same time points as in (3A) and (3B) without receiving either morphine or exposure to the conditioning context. CPP was tested 24 hr after the last injection (post-injection).
To investigate whether the blocking effect of the inhibitors on CPP was context-specific, the conditioning context was omitted, that is morphine and cycloheximide were administered in the homecages at the same times after conditioning.
as §2
Anisomycin and Cycloheximide were injected s.c. at 210 mg/Kg (Milekic and Alberini, 2002) and 2.8 mg/Kg (Squire et al., 1980), respectively. Anisomycin was dissolved as previously described (Milekic and Alberini, 2002). […]

Where [6] appears, read: single injection immediately after reconditioning, 1 week later, cycloheximide or anisomycin combined.
Where [7] appears, read: single injection immediately after reconditioning, 24 hours after reconditioning, cycloheximide or anisomycin combined.
Where [8] appears, read: injection every day at the end of each conditioning trial, 24 hours after conditioning.

In the case of `COc1ccc(C[C@H]2NC[C@H](O)[C@H]2OC(C)=O)cc1` [anisomycin], the results for the “CPP score (time spent in drug associated-chamber), mean±SEM” value in test [1] (24 hours) and in test [1] (re-tested 1 week later) were 280.1 ± 17.5 s and 358.9 ± 28.0 s, respectively. Also, the “effect on morphine CPP” value in test [1] is on record as “completely blocked”. Further, the “CPP score, mean±SEM” value in test [2] came out at 425.9 ± 25.3 s; in test [3] (setting [6]), 365.4 ± 45.1 s; in test [3] (setting [7]), 261.5 ± 33.9 s. Also, the “change in CPP score” value in test [2] is “No change”.

For `C[C@@H]1C[C@@H]([C@H](O)CC2CC(=O)NC(=O)C2)C(=O)[C@@H](C)C1` [cycloheximide], the “inhibition of protein synthesis” value came out at 71% in test [4] (double injection, 5 hours apart, at 6 hours); 70% in test [4] (single injection, at 1 hour); 23% in test [4] (single injection, at 6 hours after injection). In test [4] (two injections, 5 hours apart, for several hours), this compound registered a protein synthesis blocked of 70%. Besides, the “effect on CPP” value in test [5] (morphine and cycloheximide administered in the homecages, conditioning context omitted) was “No blocking effect”; in test [1] (setting [8]), “complete inhibition”; in test [1] (two injections (immediately after last conditioning session and 5 hours later), a week later, data not shown), “recovered”; in test [1] (two injections (immediately after last conditioning session and 5 hours later), at 24 hours, data not shown), “inhibited”; in test [3] (double injection after reconditioning, tested 24 hours to 4 weeks), “completely and persistently blocked”. Also, the “CPP score, mean±SEM” value in test [5] (morphine and cycloheximide administered in the homecages, conditioning context omitted, post-conditioning (24 hr after injection)) was determined as 362.22 ± 17.4 s; in test [5] (only the inhibitor in the homecage, morphine and context omitted, post-conditioning (24 hr after last injection)), 399.8 ± 31.6 s; in test [1] (injection every day at the end of each conditioning trial, 1 week post-conditioning), 254.8 ± 32.8 s; in test [1] (injection every day at the end of each conditioning trial, 4 weeks post-conditioning) it was 243.3 ± 21.8 s; in test [1] (setting [8]), 226.6 ± 47.2 s; in test [2], 425.9 ± 25.3 s. In addition, the “CPP score, mean±SEM” value in test [3] (double injection (immediately after reconditioning and 5 hours later), 24 hours) is 264.1 ± 13.3 s; in test [3] (double injection after reconditioning, 1 week) it was 239.9 ± 34.4 s; in test [3] (double injection after reconditioning, 2 weeks), 270.1 ± 27.2 s; in test [3] (double injection after reconditioning, 4 weeks), 278.4 ± 32.5 s; in test [3] (setting [6]) it was 365.4 ± 45.1 s; in test [3] (setting [7]) it was 261.5 ± 33.9 s. The “CPP score (time spent in drug associated-chamber), mean±SEM” value in test [1] (24 hours) stood at 280.1 ± 17.5 s; in test [1] (re-tested 1 week later), 358.9 ± 28.0 s. Also, the “effect on morphine CPP” value in test [1] is reported as “completely blocked”. Besides, the “change in CPP score” value in test [2] is given as “No change”.
